Data reported in patent US8377967B2, “Piperidine derivative” (Nippon Zoki Pharmaceutical Co., Ltd., priority 2008, dated 2013).
Counter-ions that a name gives are not always drawn.

Target: human histamine H1 receptor (Homo sapiens, UniProt P35367)
Assay: In vitro human histamine H1 receptor binding experiment ([3H]pyrilamine)
Conditions: HEK293A cells stably expressing human histamine H1 receptor, [3H]pyrilamine 3 nmol/L, room temperature 60 minutes
Method: Recombinant human histamine H1 receptor plasmid (prepared by Invitrogen) was transfected to HEK293A cells with Lipofectamine 2000 (manufactured by Invitrogen). Cells stably expressing human histamine H1 receptor were screened with Geneticin (manufactured by Invitrogen). The cells were continued to be cultured using a Dulbecco's Modified Eagle Medium containing 10% fetal bovine serum, 0.1 mmol/L MEM Non-Essential Amino Acids Solution, 2 mmol/L L-glutamine and 0.7 mg/mL Geneticin in a 5% CO2 incubator at 37° C. The cells stably expressing human histamine H1 receptor were prepared using 50 mmol/L Tris-HCl (pH 7.5) (hereinafter referred to as buffer) containing 0.1% bovine serum albumin, so as to have a concentration of 3×10^6 cells/mL, to give a cell sample preparation. Fifty microliters of the buffer, 50 μl of a test substance solution at various concentrations, and 50 μL of [^3H]pyrilamine solution (final concentration: 3 nmol/L) were added to each of the wells on the 96-well plate, and stirred, and 100 μL of the cell sample preparation was then added thereto (at a concentration of 3×10^5 cells/well) to initiate the reaction.
The cells were incubated at room temperature for 60 minutes, and then filtered on UniFilter GF/C plate (manufactured by Packard) immersed in 0.5% polyethyleneimine using a cell harvester (IH-110, manufactured by INNOTECH CORPORATION), to stop the reaction, and the plate was washed with the buffer. The plate after washing was sufficiently dried, and 20 μL of a scintillator (MaxiLight, manufactured by Hidex) was added thereto, and count per minute (cpm) was measured with a multi-labeled microplate reader (Plate Chameleo II, manufactured by Hidex). The nonspecific binding was cpm in a case where 30 μmol/L pyrilamine was added. The experiments were carried out at n=3, and at least repeated 3 times.

Sequence of human histamine H1 receptor (P35367 whole entry): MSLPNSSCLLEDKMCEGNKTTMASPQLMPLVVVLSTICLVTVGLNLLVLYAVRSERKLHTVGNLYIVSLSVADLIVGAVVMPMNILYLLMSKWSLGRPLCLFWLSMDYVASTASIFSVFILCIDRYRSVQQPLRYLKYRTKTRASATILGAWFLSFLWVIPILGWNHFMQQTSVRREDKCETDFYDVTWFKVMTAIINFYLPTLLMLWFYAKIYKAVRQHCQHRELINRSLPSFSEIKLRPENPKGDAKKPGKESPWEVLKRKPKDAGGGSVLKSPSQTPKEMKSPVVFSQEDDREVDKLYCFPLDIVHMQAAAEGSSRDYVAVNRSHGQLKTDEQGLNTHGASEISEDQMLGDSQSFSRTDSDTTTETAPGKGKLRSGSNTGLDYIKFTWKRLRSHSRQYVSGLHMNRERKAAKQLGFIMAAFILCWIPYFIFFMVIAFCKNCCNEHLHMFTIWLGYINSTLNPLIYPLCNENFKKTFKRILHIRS

Row | IC50 | Compound
1 | 8.76 nM | COC(=O)CCCc1ccc2c(c1)C(=C1CCN(CCCC(C)=O)CC1)c1sccc1CO2 [Compound 187, Methyl 4-{4-[1-(4-oxopentyl)piperidin-4-ylidene]-4,10-dihydro-9-oxa-3-thiabenzo[f]azulen-6-yl}butyrate hydrochloride]
2 | 70.8 nM | COCCNC(=O)c1cc2c(s1)CCc1ccccc1C2=C1CCN(C)CC1 [Compound 38, N-(2-Methoxyethyl)-[4-(1-methylpiperidin-4-ylidene)-9,10-dihydro-4H-1-thiabenzo[f]azulen-2-yl]carboxamide hydrochloride]
3 | 69 nM | N#CCCN1CCC(=C2c3ccccc3CCc3sc(C(=O)O)cc32)CC1 [Compound 94, {4-[1-(2-Cyanoethyl)piperidin-4-ylidene]-9,10-dihydro-4H-1-thiabenzo[f]azulen-2-yl}carboxylic acid]
4 | 16.6 nM | CCOC(=O)c1ccc2c(c1)C(=C1CCN(C)CC1)c1sccc1CC2 [Compound 115, Ethyl 4-(1-methylpiperidin-4-ylidene)-9,10-dihydro-4H-3-thiabenzo[f]azulene-6-carboxylate]
5 | 47 nM | CCOC(=O)C=Cc1cc2c(s1)CCc1ccccc1C2=C1CCN(CC)CC1 [Compound 158, Ethyl 3-[4-(1-ethylpiperidin-4-ylidene)-9,10-dihydro-4H-1-thiabenzo[f]azulen-2-yl]acrylate]
6 | 62 nM | CC(CO)NC(=O)c1cc2c(s1)CCc1ccccc1C2=C1CCN(C)CC1 (centres unmarked) [Compound 71, N-(1-Hydroxyprop-2-yl)-{[4-(1-methylpiperidin-4-ylidene)-9,10-dihydro-4H-1-thiabenzo[f]azulen-2-yl]}carboxamide]
7 | 11 nM | COC(=O)Cc1ccc2c(c1)C(=C1CCN(CCNC(N)=O)CC1)c1sccc1CO2 [Compound 174, Methyl {4-[1-(2-ureidoethyl)piperidin-4-ylidene]-4,10-dihydro-9-oxa-3-thiabenzo[f]azulen-6-yl}acetate]
8 | 65.1 nM | CN1CCC(=C2c3ccccc3CCc3sc(C(=O)NO)cc32)CC1 [Compound 78, N-Hydroxy-{[4-(1-methylpiperidin-4-ylidene)-9,10-dihydro-4H-1-thiabenzo[f]azulen-2-yl]}carboxamide]
9 | 11.7 nM | COC(=O)CCc1ccc2c(c1)C(=C1CCN(CCNS(C)(=O)=O)CC1)c1sccc1CO2 [Compound 195, Methyl 3-{4-[1-(2-methanesulfonylaminoethyl)piperidin-4-ylidene]-4,10-dihydro-9-oxa-3-thiabenzo[f]azulen-6-yl}propionate hydrochloride]
10 | 70.1 nM | CC(C(=O)O)c1ccc2c(c1)C(=C1CCN(C)CC1)c1sccc1CO2 (centres unmarked) [Compound 57, 2-[4-(1-Methylpiperidin-4-ylidene)-4,10-dihydro-9-oxa-3-thiabenzo[f]azulen-6-yl]propionic acid hydrochloride]
11 | 16.9 nM | CCOC(=O)CCc1cc2c(s1)CCc1ccccc1C2=C1CCN(C)CC1 [Compound 97, Ethyl 3-[4-(1-methylpiperidin-4-ylidene)-9,10-dihydro-4H-1-thiabenzo[f]azulen-2-yl]propionate]
12 | 27.5 nM | CCCNC(=O)c1cc2c(s1)CCc1ccccc1C2=C1CCN(C)CC1 [Compound 85, N-Propyl-{[4-(1-methylpiperidin-4-ylidene)-9,10-dihydro-4H-1-thiabenzo[f]azulen-2-yl]}carboxamide]
13 | 35.4 nM | CCOC(=O)c1cc2c(s1)CCc1ccccc1C2=C1CCN(CC)CC1 [Compound 103, Ethyl[4-(1-ethylpiperidin-4-ylidene)-9,10-dihydro-4H-1-thiabenzo[f]azulen-2-yl]carboxylate hydrochloride]
14 | 69.9 nM | CN1CCC(=C2c3ccccc3CCc3sc(C(=O)NC(C)(C)CO)cc32)CC1 [Compound 80, N-(2-Methyl-1-hydroxyprop-2-yl)-{[4-(1-methylpiperidin-4-ylidene)-9,10-dihydro-4H-1-thiabenzo[f]azulen-2-yl]}carboxamide]
15 | 74.8 nM | CCOC(=O)Nc1cc2c(s1)CCc1ccccc1C2=C1CCN(C)CC1 [Compound 75, 2-Ethoxycarbonylamino-4-(1-methylpiperidin-4-ylidene)-9,10-dihydro-4H-1-thiabenzo[f]azulene]
16 | 59.1 nM | CC(C(=O)O)c1cc2c(s1)C(=C1CCN(C)CC1)c1ccccc1CC2 (centres unmarked) [Compound 60, 2-[4-(1-Methylpiperidin-4-ylidene)-9,10-dihydro-4H-3-thiabenzo[f]azulen-2-yl]propionic acid hydrochloride]

Row | IC50 | Compound
17 | 9.66 nM | COC(=O)CCCCc1ccc2c(c1)C(=C1CCN(C)CC1)c1sccc1CO2 [Compound 156, Methyl 5-[4-(1-methylpiperidin-4-ylidene)-4,10-dihydro-9-oxa-3-thiabenzo[f]azulen-6-yl]valerate hydrochloride]
18 | 4.04 nM | CCOC(=O)Cc1ccc2c(c1)C(=C1CCN(C)CC1)c1sccc1CC2 [Compound 147, Ethyl[4-(1-methylpiperidin-4-ylidene)-9,10-dihydro-4H-3-thiabenzo[f]azulen-6-yl]acetate hydrochloride]
19 | 13 nM | CCOCCN1CCC(=C2c3ccccc3CCc3sc(C(=O)OCC)cc32)CC1 [Compound 181, Ethyl 4-[1-(2-ethoxyethyl)piperidin-4-ylidene]-9,10-dihydro-4H-1-thiabenzo[f]azulene-2-carboxylate hydrochloride]
20 | 13.1 nM | COC(=O)Cc1ccc2c(c1)C(=C1CCN(CCCNS(C)(=O)=O)CC1)c1sccc1CO2 [Compound 193, Methyl {4-[1-(3-methanesulfonylaminopropyl)piperidin-4-ylidene]-4,10-dihydro-9-oxa-3-thiabenzo[f]azulen-6-yl}acetate hydrochloride]
21 | 1.94 nM | C=Cc1cc2c(s1)CCc1ccccc1C2=C1CCN(C)CC1 [Compound 112, 2-Vinyl-4-(1-methylpiperidin-4-ylidene)-9,10-dihydro-4H-1-thiabenzo[f]azulene]
22 | 93.3 nM | CC(O)CNC(=O)c1cc2c(s1)CCc1ccccc1C2=C1CCN(C)CC1 (centres unmarked) [Compound 70, N-(2-Hydroxypropyl)-{[4-(1-methylpiperidin-4-ylidene)-9,10-dihydro-4H-1-thiabenzo[f]azulen-2-yl]}carboxamide]
23 | 3.5 nM | CCOC(=O)Cc1cc2c(s1)C(=C1CCN(C)CC1)c1ccccc1CC2 [Compound 23, Ethyl[4-(1-methylpiperidin-4-ylidene)-9,10-dihydro-4H-3-thiabenzo[f]azulen-2-yl]acetate hydrochloride]
24 | 6.77 nM | CCN1CCC(=C2c3cc(CCCC(=O)OC)ccc3OCc3ccsc32)CC1 [Compound 141, Methyl 4-[4-(1-ethylpiperidin-4-ylidene)-4,10-dihydro-9-oxa-3-thiabenzo[f]azulen-6-yl]butyrate hydrochloride]
25 | 19.2 nM | CCOC(=O)c1cc2c(s1)C(=C1CCN(C)CC1)c1ccccc1OC2 [Compound 44, Ethyl[4-(1-methylpiperidin-4-ylidene)-4,10-dihydro-9-oxa-3-thiabenzo[f]azulen-2-yl]carboxylate hydrochloride]
26 | 52.1 nM | CONC(=O)c1cc2c(s1)CCc1ccccc1C2=C1CCN(C)CC1 [Compound 40, N-Methoxy [4-(1-methylpiperidin-4-ylidene)-9,10-dihydro-4H-1-thiabenzo[f]azulen-2-yl]carboxamide hydrochloride]
27 | 25.6 nM | CCOC(=O)C(C)(C)c1cc2c(s1)CCc1ccccc1C2=C1CCN(CC)CC1 [Compound 154, Ethyl 2-[4-(1-ethylpiperidin-4-ylidene)-9,10-dihydro-4H-1-thiabenzo[f]azulen-2-yl]-2-methylpropionate hydrochloride]
28 | 28.2 nM | CN1CCC(=C2c3ccccc3CCc3sc(C(=O)NCC(F)(F)F)cc32)CC1 [Compound 79, N-(2,2,2-Trifluoroethyl)-{[4-(1-methylpiperidin-4-ylidene)-9,10-dihydro-4H-1-thiabenzo[f]azulen-2-yl]}carboxamide]
29 | 4.8 nM | CN1CCC(=C2c3cc(CO)ccc3CCc3sccc32)CC1 [Compound 104, 6-(2-Hydroxymethyl)-4-(1-methylpiperidin-4-ylidene)-9,10-dihydro-4H-1-thiabenzo[f]azulene]
30 | 14.9 nM | CCOC(=O)c1ccc2c(c1)C(=C1CCN(C)CC1)c1ccsc1CC2 [Compound 95, Ethyl[4-(1-methylpiperidin-4-ylidene)-9,10-dihydro-4H-1-thiabenzo[f]azulen-6-yl]carboxylate]
31 | 38.4 nM | CON(C)C(=O)c1cc2c(s1)CCc1ccccc1C2=C1CCN(C)CC1 [Compound 84, N-Methyl-N-methoxy-{[4-(1-methylpiperidin-4-ylidene)-9,10-dihydro-4H-1-thiabenzo[f]azulen-2-yl]}carboxamide]

Row | Compound | IC50
32 | CN1CCC(=C2c3ccccc3CCc3cc(NC(=O)OC(C)(C)C)sc32)CC1 [Compound 10, 2-t-Butoxycarbonylamino-4-(1-methylpiperidin-4-ylidene)-9,10-dihydro-4H-3-thiabenzo[f]azulene] | 88.5 nM
